Measurements as given in ChEMBL document CHEMBL5505990, “Novel aroyl guanidine anti-trypanosomal compounds that exert opposing effects on parasite energy metabolism” (Eur J Med Chem, 2024).

How the values were obtained:
[1] = tested on: Trypanosoma brucei brucei; test: Anti-trypanosomal activity against Trypanosoma brucei brucei; format: functional, organism-based
[2] = Selectivity ratio of IC50 for HEK293 cells to IC50 for Trypanosoma brucei brucei; format: toxicity; details: human, read-out: Ratio IC50
[3] = Cytotoxicity against HEK293 cells; format: toxicity, cell-based; details: human
[4] = Cytotoxicity against HEK293 cells assessed as inhibition of cell viability at 83 uM relative to control; format: toxicity, cell-based; details: human, read-out: INH
[5] = tested on: Trypanosoma brucei brucei; test: Anti-trypanosomal activity against Trypanosoma brucei brucei at 10 uM relative to control; format: functional

SMILES | IC50 [1] [µM] | selectivity ratio [2] | IC50 [3] [µM] | cytotoxicity at 83 µM [4] [%] | inhibition at 10 µM [5] [%]
CCc1ccccc1/N=C(\NCCN1CCOCC1)NC(=O)c1cccc(O)c1 | > 83 | 1 | > 83 |  | 
O=C(N/C(=N/c1ccccc1C(F)(F)F)NCCN1CCOCC1)c1ccccc1 |  |  |  | 63 | 59
CCc1ccccc1/N=C(\NCCN1CCN(C)CC1)NC(=O)c1ccccc1 | > 10 |  |  |  | 
CCCc1ccccc1/N=C(\NCCN1CCOCC1)NC(=O)c1ccccc1 |  |  |  | 58 | 72
COc1ccccc1/N=C(\NCCN1CCOCC1)NC(=O)c1ccccc1 | > 10 |  |  |  | 
CC(C)c1ccccc1/N=C(\NCCN1CCOCC1)NC(=O)c1ccccc1 |  |  |  | 63 | 75
CCc1ccccc1/N=C(\NCCN1CCCCC1)NC(=O)c1ccccc1 | > 10 |  |  |  | 
CCc1ccccc1/N=C(\NCCN1CCOCC1)NC(=O)c1ccccc1Cl | > 10 |  |  |  | 
CCc1ccccc1/N=C(\NCCN1CCCC1)NC(=O)c1ccccc1 | > 10 |  |  |  | 
CCc1ccccc1/N=C(\NCCN1CCOCC1)NC(=O)c1ccccc1OC | > 10 |  |  |  | 
CCc1ccccc1/N=C(\NCCCN1CCOCC1)NC(=O)c1ccccc1 | > 10 |  |  |  | 
CCc1ccccc1/N=C(\NCCN1CCOCC1)NC(=O)c1cccc(C(C)=O)c1 | > 83 | 1 | > 83 |  | 
CCc1ccccc1/N=C(\NCCN(C)C)NC(=O)c1ccccc1 | > 10 |  |  |  | 

Now from value to compound, other results behind:

IC50 [1] [µM] | SMILES | selectivity ratio [2] | IC50 [3] [µM] | cytotoxicity at 83 µM [4] [%] | inhibition at 10 µM [5] [%]
> 10 | CCc1ccccc1/N=C(\NCCN1CCOCC1)NC(=O)c1ccccc1C |  |  |  | 
> 10 | O=C(N/C(=N/c1ccccc1F)NCCN1CCOCC1)c1ccccc1 |  |  |  | 
9 | CCCc1ccc(C(=O)N/C(=N/c2ccccc2CC)NCCN2CCOCC2)cc1 | > 9 | > 83 |  | 
> 10 | N#Cc1ccccc1/N=C(\NCCN1CCOCC1)NC(=O)c1ccccc1 |  |  |  | 
7 | CCc1ccccc1/N=C(\NCCN1CCOCC1)NC(=O)c1ccccc1F | 1 | > 10 |  | 
0.75 | CCc1ccccc1/N=C(\NCCN1CCOCC1)NC(=O)c1ccc(F)c(OC)c1 |  |  | 94 | 
9.4 | CCc1ccccc1/N=C(\NCCN1CCOCC1)NC(=O)c1ccc(OC)cc1 | > 8.8 | > 83 |  | 
1.6 | CCc1ccccc1/N=C(\NCCN1CCOCC1)NC(=O)c1ccc(Cl)cc1 | > 52 | > 83 |  | 
7.5 | O=C(N/C(=N/c1ccccc1Cl)NCCN1CCOCC1)c1ccccc1 | > 11 | > 83 |  | 
> 10 | CCc1ccccc1/N=C(\NCCN1CCOCC1)NC(=O)c1ccccc1Br |  |  |  | 
> 10 | O=C(N/C(=N/c1ccccc1)NCCN1CCOCC1)c1ccccc1 |  |  |  | 
1.6 | CCc1ccccc1/N=C(\NCCN1CCOCC1)NC(=O)c1cccc(F)c1 | > 52 | > 83 |  | 
10 | CCc1ccccc1/N=C(\NCCN1CCOCC1)NC(=O)c1ccc(C(C)C)cc1 |  |  | 52 | 
2.4 | CCc1ccccc1/N=C(\NCCN1CCOCC1)NC(=O)c1ccc(F)c(C)c1 |  |  | 101 | 
1.6 | CCc1ccccc1/N=C(\NCCN1CCOCC1)NC(=O)c1cccc(OC)c1 | > 52 | > 83 |  | 
1.3 | CCc1ccccc1/N=C(\NCCN1CCOCC1)NC(=O)c1cccc(C)c1 | > 64 | > 83 |  | 
8.7 | CCc1ccccc1/N=C(\NCCN1CCOCC1)NC(=O)c1ccc(Br)cc1 | > 9.5 | > 83 |  | 
